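Each compound was tested at five concentrations against cells in 96-well plates for 48 hours. GI50: concentration for 50% inhibition of growth.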 The source made the active and inactive calls. Cut-off read from the data, not from the text of the source: active = GI50 up to about 1.1 µM and inactive = higher.
Columns and labels:
Assay in all cases: DTP human tumour cell line panel, 48 h
786-0 = system: 786-0
A498 = system: A498
A549 = system: A549
ACHN = system: ACHN
HCC 2998 = system: HCC 2998
HCT-116 = system: HCT-116
K562 = system: K562
MOLT-4 = system: MOLT-4
NCI-H522 = system: NCI-H522
SF-295 = system: SF-295
SR = system: SR
UACC-257 = system: UACC-257
CAKI-1 = system: CAKI-1
HCT-15 = system: HCT-15
HOP-62 = system: HOP-62
NCI-H226 = system: NCI-H226
OVCAR-8 = system: OVCAR-8
TK-10 = system: TK-10
MCF7 = system: MCF7
MDA-MB-435 = system: MDA-MB-435

Row | SMILES | GI50 (786-0) | GI50 (A498) | GI50 (A549) | GI50 (ACHN) | GI50 (HCC 2998) | GI50 (HCT-116) | GI50 (K562) | GI50 (MOLT-4) | GI50 (NCI-H522) | GI50 (SF-295) | GI50 (SR) | GI50 (UACC-257) | GI50 (CAKI-1) | GI50 (HCT-15) | GI50 (HOP-62) | GI50 (NCI-H226) | GI50 (OVCAR-8) | GI50 (TK-10) | GI50 (MCF7) | GI50 (MDA-MB-435)
1 | CC(C)C(=O)/C=C/c1ccc(Cl)cc1 | 11.1 µM (inactive) | > 10 µM (inactive) | 21.7 µM (inactive) | 11.2 µM (inactive) | 18 µM (inactive) | 2.67 µM (inactive) | 3.48 µM (inactive) | 12.2 µM (inactive) | 11 µM (inactive) | 13.5 µM (inactive) | 4.84 µM (inactive) | 20.2 µM (inactive) |  |  |  |  |  |  |  | 
2 | CCSC(SCC)=C1C(=O)N(c2ccccc2)N=C1C | 13.1 µM (inactive) | 15.3 µM (inactive) | 18.1 µM (inactive) | 15.7 µM (inactive) | 14.5 µM (inactive) | 15.1 µM (inactive) | 5.71 µM (inactive) | 6.98 µM (inactive) | 1.95 µM (inactive) | 23.7 µM (inactive) | 15.6 µM (inactive) | 4.06 µM (inactive) | 3.8 µM (inactive) | 12.3 µM | 23.3 µM (inactive) | 15.7 µM (inactive) | 11.6 µM (inactive) | 10.1 µM (inactive) |  | 
3 | COc1cc(C2c3cc4c(cc3[C@@H](N(C)c3ccc(N(C)C)cc3)C3COC(=O)C23)OCO4)cc(OC)c1O (some centres not stated) | 0.489 µM (active) | 26.8 µM (inactive) |  | 0.774 µM (active) | 0.785 µM (active) | 0.399 µM (active) | 0.329 µM (active) | 0.434 µM (active) | 0.0589 µM (active) | 0.147 µM (active) | 0.427 µM (active) | 1.39 µM (inactive) | 0.491 µM (active) | 0.449 µM | 1.75 µM (inactive) | 0.292 µM (active) | 0.365 µM (active) | 18.5 µM (inactive) |  | 
4 | CCOC(=O)Cc1c(C)c2cc(C(=O)c3ccccc3)c(O)cc2oc1=O | 39.8 µM (inactive) | 25.3 µM (inactive) | 25.8 µM (inactive) | 29.3 µM (inactive) | 32.6 µM (inactive) | 33.3 µM (inactive) | 24.7 µM (inactive) | 36.1 µM (inactive) | 27 µM (inactive) | 34.8 µM (inactive) |  | 28.7 µM (inactive) | 30.6 µM (inactive) | 29.4 µM | 35.6 µM (inactive) | 27.3 µM (inactive) | 34.1 µM (inactive) | 43.4 µM (inactive) | 22.4 µM (inactive) | 33 µM (inactive)
5 | CCCCS/C(=C(/C#N)C(N)=O)c1cc2c([nH]1)CCCC2 | 11.5 µM (inactive) | 17.6 µM (inactive) | 21.9 µM (inactive) | 16.3 µM (inactive) | 11.4 µM (inactive) | 11 µM (inactive) | 3.68 µM (inactive) | 10 µM (inactive) |  | 12.4 µM (inactive) |  | 14.3 µM (inactive) | 14 µM (inactive) | 9.71 µM | 21.9 µM (inactive) | 15.1 µM (inactive) | 15.6 µM (inactive) | 15.3 µM (inactive) | 10.3 µM (inactive) | 3.36 µM (inactive)
6 | CN1CCN(c2ccncc2S(=O)(=O)N2CCN(C)CC2)CC1 | > 100 µM (inactive) | > 100 µM (inactive) | > 100 µM (inactive) | > 100 µM (inactive) |  | > 100 µM (inactive) | > 100 µM (inactive) |  | > 100 µM (inactive) | > 100 µM (inactive) |  | > 100 µM (inactive) | > 100 µM (inactive) | > 100 µM | > 100 µM (inactive) | > 100 µM (inactive) | > 100 µM (inactive) | > 100 µM (inactive) | > 100 µM (inactive) | > 100 µM (inactive)
7 | O=C(NC1CCN(Cc2ccccc2)CC1)c1cccc(I)c1 | 25.4 µM (inactive) | 46.6 µM (inactive) | 31.9 µM (inactive) | 52.4 µM (inactive) |  | 15.3 µM (inactive) | 22.6 µM (inactive) | 13.9 µM (inactive) | 17.8 µM (inactive) | 18.3 µM (inactive) | 18.8 µM (inactive) | 16.4 µM (inactive) | 19.7 µM (inactive) | 17.5 µM | 15.8 µM (inactive) | 31.6 µM (inactive) | 39.2 µM (inactive) | 22.8 µM (inactive) |  | 17.3 µM (inactive)
8 | O=C1Cc2c([nH]c3ccc(Br)cc23)-c2cc(O)c(O)cc2N1 | > 100 µM (inactive) | > 100 µM (inactive) | > 100 µM (inactive) | > 100 µM (inactive) | > 100 µM (inactive) |  | > 100 µM (inactive) | 71.8 µM (inactive) | > 100 µM (inactive) | > 100 µM (inactive) |  | > 100 µM (inactive) | > 100 µM (inactive) | > 100 µM | > 100 µM (inactive) | > 100 µM (inactive) | > 100 µM (inactive) | > 100 µM (inactive) | > 100 µM (inactive) | > 100 µM (inactive)
9 | Cc1ccc(NC(=O)CC/C(CC(=O)c2ccc(Cl)cc2)=N\NC(=O)C(=O)NN)cc1C | > 100 µM (inactive) | > 100 µM (inactive) | > 100 µM (inactive) | > 100 µM (inactive) | > 100 µM (inactive) | > 100 µM (inactive) | > 100 µM (inactive) | > 100 µM (inactive) | > 100 µM (inactive) | > 100 µM (inactive) | > 100 µM (inactive) | > 100 µM (inactive) | > 100 µM (inactive) | > 100 µM | > 100 µM (inactive) | > 100 µM (inactive) | > 100 µM (inactive) | > 100 µM (inactive) |  | 
10 | O=[N+]([O-])c1ccc(C[P+]2(c3ccccc3)CCCCC2)cc1.[O-][Cl+3]([O-])([O-])[O-] | > 100 µM (inactive) | > 100 µM (inactive) | > 100 µM (inactive) | > 100 µM (inactive) | > 100 µM (inactive) | > 100 µM (inactive) | > 100 µM (inactive) | > 100 µM (inactive) | > 100 µM (inactive) | > 100 µM (inactive) | > 100 µM (inactive) | > 100 µM (inactive) |  | 72.1 µM | > 100 µM (inactive) | > 100 µM (inactive) | > 100 µM (inactive) | > 100 µM (inactive) |  | 
11 | N#C/C(=C(/S)Nc1ccccc1)c1nc2ccccc2[nH]1 | > 10 µM (inactive) | > 10 µM (inactive) | > 10 µM (inactive) | > 10 µM (inactive) | > 10 µM (inactive) | > 10 µM (inactive) | > 10 µM (inactive) | > 10 µM (inactive) | > 10 µM (inactive) |  | > 10 µM (inactive) | > 10 µM (inactive) | > 10 µM (inactive) | > 10 µM | > 10 µM (inactive) | > 10 µM (inactive) | > 10 µM (inactive) | > 10 µM (inactive) |  | 
12 | CCOc1ccc(NCc2cc(OC)c(OC)c(OC)c2)cc1 | 0.723 µM (active) |  | 0.847 µM (active) | 10.7 µM (inactive) | 0.771 µM (active) | 0.427 µM (active) | 0.215 µM (active) | 0.582 µM (active) | 0.333 µM (active) | 0.306 µM (active) | 0.256 µM (active) | 20.9 µM (inactive) |  | 0.335 µM | 0.753 µM (active) | 10.3 µM (inactive) |  |  | 0.435 µM (active) | 
13 | CCN(c1ccccc1)[C@H]1C(=O)N(c2ccc([N+](=O)[O-])cc2)[C@H]1c1ccc(OC)cc1 | > 100 µM (inactive) | 80.7 µM (inactive) | > 100 µM (inactive) | > 100 µM (inactive) | > 100 µM (inactive) | > 100 µM (inactive) | 41.6 µM (inactive) | > 100 µM (inactive) | 63.5 µM (inactive) | 52.5 µM (inactive) | > 100 µM (inactive) | > 100 µM (inactive) | 73.3 µM (inactive) |  |  | > 100 µM (inactive) | > 100 µM (inactive) | > 100 µM (inactive) |  | 
14 | O=[N+]([O-])c1ccc(/C=N/Nc2nc3ccccc3[nH]2)o1 | 24.9 µM (inactive) |  | 12.2 µM (inactive) |  |  | 14.8 µM (inactive) | 13.1 µM (inactive) | 11.2 µM (inactive) | 13.3 µM (inactive) | 16 µM (inactive) | 7.71 µM (inactive) | 21.2 µM (inactive) | 15.1 µM (inactive) | 11.8 µM | 15.8 µM (inactive) | 22.2 µM (inactive) | 16.7 µM (inactive) | 19.2 µM (inactive) |  | 4.45 µM (inactive)
15 | CC(=O)C1Cn2c(=O)c3cc4ccccc4cc3c(=O)n2C=C1C (configuration not stated) | > 100 µM (inactive) | 43.5 µM (inactive) | > 100 µM (inactive) | > 100 µM (inactive) | > 100 µM (inactive) | > 100 µM (inactive) | > 100 µM (inactive) | > 100 µM (inactive) | > 100 µM (inactive) | > 100 µM (inactive) | > 100 µM (inactive) | > 100 µM (inactive) | > 100 µM (inactive) | 76.7 µM | > 100 µM (inactive) | > 100 µM (inactive) | > 100 µM (inactive) | > 100 µM (inactive) |  | 
16 | O=[N+]([O-])/C(C(Cl)=C(Cl)Cl)=C(\Nc1cccc2ccccc12)Sc1ccccc1 | 18.4 µM (inactive) | 11 µM (inactive) | 19.7 µM (inactive) | 13.9 µM (inactive) | 17.8 µM (inactive) | 15 µM (inactive) | 57.3 µM (inactive) | > 100 µM (inactive) |  | 15.2 µM (inactive) |  | 14.8 µM (inactive) | 15.5 µM (inactive) | 15.7 µM | 23.9 µM (inactive) | 16.1 µM (inactive) | 15.3 µM (inactive) |  | 12.6 µM (inactive) | 13.8 µM (inactive)
17 | c1cc(-c2ccc(-c3ccc(-c4ccc(-c5cccc6nsnc56)[nH]4)c4nsnc34)[nH]2)c2nsnc2c1 | > 100 µM (inactive) |  | > 100 µM (inactive) | > 100 µM (inactive) | > 100 µM (inactive) | > 100 µM (inactive) | > 100 µM (inactive) | > 100 µM (inactive) | > 100 µM (inactive) | > 100 µM (inactive) |  |  |  | > 100 µM | > 100 µM (inactive) | > 100 µM (inactive) | > 100 µM (inactive) | > 100 µM (inactive) | > 100 µM (inactive) | > 100 µM (inactive)
